Experimental data from PubChem BioAssay AID248 (DTP/NCI, 2004).
Several values for one entry are separate records, joined by “and”; a condition that tells them apart may be missing. Equal entries are not always repeated. Toxic doses and inconclusive results are not listed. Cut-off read from the data, not from the text of the source: active = T/C of 150% or more; inactive = T/C below 125%.

Tested on: L1210 leukemia ip in BDF1 mice, survival T/C
Experiment: NCI In Vivo Anticancer Drug Screen. Data for tumor model L1210 Leukemia (intraperitoneal) in B6D2F1 (BDF1) mice
Conditions: endpoint: mean survival time, higher = longer survival
Procedure, shortened: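 Mice bearing the transplanted tumor received compound or vehicle. Survival of the treated group was divided by that of the vehicle-treated control group to give the ratio.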

[1] = dose: 50.0 mg/kg/injection, schedule: Q01DX001 (ip), vehicle: saline
[2] = dose: 100.0 mg/kg/injection, schedule: Q01DX001 (ip), vehicle: saline
[3] = dose: 100.0 mg/kg/injection, schedule: Q01DX001 (ip), vehicle: Klucel (hydroxypropylcellulose) (HPC)
[4] = dose: 200.0 mg/kg/injection, schedule: Q01DX001 (ip), vehicle: Klucel (hydroxypropylcellulose) (HPC)
[5] = dose: 200.0 mg/kg/injection, schedule: Q01DX001 (ip), vehicle: saline
[6] = dose: 400.0 mg/kg/injection, schedule: Q01DX001 (ip), vehicle: saline
[7] = dose: 100.0 mg/kg/injection, schedule: Q04DX003 (ip), vehicle: Klucel (hydroxypropylcellulose) (HPC)
[8] = dose: 200.0 mg/kg/injection, schedule: Q04DX003 (ip), vehicle: Klucel (hydroxypropylcellulose) (HPC)
[9] = dose: 400.0 mg/kg/injection, schedule: Q04DX003 (ip), vehicle: Klucel (hydroxypropylcellulose) (HPC)
[10] = dose: 100.0 mg/kg/injection, schedule: Q01DX009 (ip), vehicle: saline with Tween-80
[11] = dose: 100.0 mg/kg/injection, schedule: Q04DX003 (ip), vehicle: saline with Tween-80
[12] = dose: 25.0 mg/kg/injection, schedule: Q01DX009 (ip), vehicle: saline with Tween-80
[13] = dose: 50.0 mg/kg/injection, schedule: Q01DX009 (ip), vehicle: saline with Tween-80
[14] = dose: 100.0 mg/kg/injection, schedule: Q01DX009 (ip), vehicle: Klucel (hydroxypropylcellulose) (HPC)

Measured: T/C

CC(=O)c1ccc(N2CCN(C)CC2)cc1
inactive: [1] 100 % of control | [2] 102 % of control

O=C(Cc1ccccc1)Nc1cccnc1
inactive: dose: 75.0 mg/kg/injection, schedule: Q04DX003 (ip), vehicle: Klucel (hydroxypropylcellulose) (HPC) 102 % of control | [3] 97 % of control | dose: 150.0 mg/kg/injection, schedule: Q04DX003 (ip), vehicle: Klucel (hydroxypropylcellulose) (HPC) 114 % of control | [4] 103 % of control | dose: 300.0 mg/kg/injection, schedule: Q04DX003 (ip), vehicle: Klucel (hydroxypropylcellulose) (HPC) 104 % of control | dose: 400.0 mg/kg/injection, schedule: Q01DX001 (ip), vehicle: Klucel (hydroxypropylcellulose) (HPC) 92 % of control

Clc1ccccc1-c1nc2ccccc2cc1Cl
inactive: [2] 92 % of control | [5] 88 % of control | [6] 94 % of control

Ic1ncnc2c1ncn2C1CCCCO1 (stereo unspecified)
inactive: dose: 31.0 mg/kg/injection, schedule: Q01DX Z (ip), vehicle: other 111 % of control | dose: 62.0 mg/kg/injection, schedule: Q01DX Z (ip), vehicle: other 109 % of control | [2] 98 % of control | dose: 100.0 mg/kg/injection, schedule: Q01DX009 (ip), vehicle: saline sonified 96 % of control | [7] 93 % of control | dose: 125.0 mg/kg/injection, schedule: Q01DX Z (ip), vehicle: other 103 % of control | [5] 107 % of control | dose: 200.0 mg/kg/injection, schedule: Q01DX009 (ip), vehicle: saline sonified 93 % of control | [8] 94 % of control | dose: 250.0 mg/kg/injection, schedule: Q01DX Z (ip), vehicle: other 111 % of control | dose: 375.0 mg/kg/injection, schedule: Q01DX Z (ip), vehicle: other 114 % of control | [6] 104 % of control | [9] 98 % of control | dose: 500.0 mg/kg/injection, schedule: Q01DX Z (ip), vehicle: other 121 % of control

COc1ccccc1Cl
inactive: [10] 94 % of control | [11] 106 % of control | dose: 200.0 mg/kg/injection, schedule: Q01DX009 (ip), vehicle: saline with Tween-80 86 % of control | dose: 200.0 mg/kg/injection, schedule: Q04DX003 (ip), vehicle: saline with Tween-80 104 % of control | dose: 400.0 mg/kg/injection, schedule: Q04DX003 (ip), vehicle: saline with Tween-80 93 % of control

CCCCCC(C)SC#N (stereo unspecified)
inactive: [12] 107 % of control | [13] 102 % of control | [10] 88 % of control

CN(C)C(=S)Oc1ccccc1C1(C)OCCO1
inactive: dose: 100.0 mg/kg/injection, schedule: Q01DX001 (ip), vehicle: saline with Tween-80 97 % of control | dose: 200.0 mg/kg/injection, schedule: Q01DX001 (ip), vehicle: saline with Tween-80 98 % of control | dose: 400.0 mg/kg/injection, schedule: Q01DX001 (ip), vehicle: saline with Tween-80 96 % of control

COc1ccccc1CN1CCCN(Cc2ccccc2OC)C1c1ccc(N(C)C)cc1
inactive: [1] 98 % of control | [2] 98 % of control | [5] 95 % of control | [6] 88 % of control

S=C(Nc1ccc(Cl)cc1)Nc1ccc(Cl)cc1
inactive: [7] 108 % of control | [8] 103 % of control | [9] 97 % of control

CC(O)CN1CCCCCC1 (stereo unspecified)
inactive: dose: 12.5 mg/kg/injection, schedule: Q01DX009 (ip), vehicle: saline with Tween-80 103 % of control | [12] 94 % of control | dose: 25.0 mg/kg/injection, schedule: Q04DX003 (ip), vehicle: saline with Tween-80 107 % of control | [13] 93 % of control | dose: 50.0 mg/kg/injection, schedule: Q04DX003 (ip), vehicle: saline with Tween-80 107 % of control | [11] 95 % of control

CCOC(=O)Nc1cc(NC(c2ccccc2)c2ccccc2)c([N+](=O)[O-])c(N)n1
inactive: dose: 100.0 mg/kg/injection, schedule: Q01DX001 (ip), vehicle: carboxymethylcellulose (CMC) 91 % of control | dose: 200.0 mg/kg/injection, schedule: Q01DX001 (ip), vehicle: carboxymethylcellulose (CMC) 91 % of control | dose: 400.0 mg/kg/injection, schedule: Q01DX001 (ip), vehicle: carboxymethylcellulose (CMC) 89 % of control

O=[N+]([O-])C1CCC2CCC3CCCC1C32 (stereo unspecified)
inactive: dose: 25.0 mg/kg/injection, schedule: Q04DX002 (ip), vehicle: saline with Tween-80 97 % of control | dose: 50.0 mg/kg/injection, schedule: Q04DX002 (ip), vehicle: saline with Tween-80 91 % of control | dose: 100.0 mg/kg/injection, schedule: Q04DX002 (ip), vehicle: saline with Tween-80 101 % of control and 102 % of control | dose: 400.0 mg/kg/injection, schedule: Q04DX002 (ip), vehicle: saline with Tween-80 93 % of control

Cc1nc(Br)c2cnccn12
inactive: dose: 12.5 mg/kg/injection, schedule: Q01DX009 (ip), vehicle: saline 106 % of control | dose: 12.5 mg/kg/injection, schedule: Q04DX003 (ip), vehicle: saline 98 % of control | dose: 25.0 mg/kg/injection, schedule: Q01DX009 (ip), vehicle: saline 103 % of control | dose: 25.0 mg/kg/injection, schedule: Q04DX003 (ip), vehicle: saline 97 % of control | dose: 50.0 mg/kg/injection, schedule: Q04DX003 (ip), vehicle: saline 97 % of control

Nc1ccc(OCc2ccc(S(=O)(=O)F)c(Cl)c2)c(Cl)c1
inactive: dose: 100.0 mg/kg/injection, schedule: Q01DX009 (ip), vehicle: other 91 % of control | dose: 100.0 mg/kg/injection, schedule: Q04DX003 (ip), vehicle: saline 93 % of control | dose: 200.0 mg/kg/injection, schedule: Q01DX009 (ip), vehicle: other 92 % of control | dose: 200.0 mg/kg/injection, schedule: Q04DX003 (ip), vehicle: saline 95 % of control | dose: 400.0 mg/kg/injection, schedule: Q04DX003 (ip), vehicle: saline 98 % of control

COC(=O)CN(C(=O)c1ccc(OC(C)=O)cc1)c1ccccc1
inactive: [7] 100 % of control | [8] 94 % of control | [9] 96 % of control

N#CSCSC#N
inactive: dose: 3.12 mg/kg/injection, schedule: Q04DX003 (ip), vehicle: saline with Tween-80 98 % of control | dose: 6.25 mg/kg/injection, schedule: Q04DX003 (ip), vehicle: saline with Tween-80 96 % of control | dose: 12.5 mg/kg/injection, schedule: Q04DX003 (ip), vehicle: saline with Tween-80 90 % of control

CC1(C)N=C(N)N=C(N)N1c1cccc(CC(C(=O)Nc2ccc(S(=O)(=O)F)cc2)c2ccccc2)c1 (stereo unspecified)
inactive: dose: 25.0 mg/kg/injection, schedule: Q01DX001 (ip), vehicle: Klucel (hydroxypropylcellulose) (HPC) 95 % of control | dose: 50.0 mg/kg/injection, schedule: Q01DX001 (ip), vehicle: Klucel (hydroxypropylcellulose) (HPC) 95 % of control | [3] 94 % of control and 95 % of control | [4] 101 % of control

O=P(Cc1ccccc1)(c1ccccc1)c1ccccc1
inactive: [7] 90 % of control | [8] 90 % of control | [9] 94 % of control

Cc1cc(N(C)C)c([N+](=O)[O-])cc1C=O
inactive: [14] 98 % of control | [7] 100 % of control | dose: 200.0 mg/kg/injection, schedule: Q01DX009 (ip), vehicle: Klucel (hydroxypropylcellulose) (HPC) 96 % of control | [8] 94 % of control | dose: 400.0 mg/kg/injection, schedule: Q01DX009 (ip), vehicle: Klucel (hydroxypropylcellulose) (HPC) 96 % of control | [9] 94 % of control

CO[C@H]1/C=C/O[C@@]2(C)Oc3c(C)c(O)c4c(O)c(c(/C=N/N5CCN(C)CC5)c(O)c4c3C2=O)NC(=O)/C(C)=C\C=C\[C@H](C)[C@H](O)[C@@H](C)[C@@H](O)[C@@H](C)[C@H](OC(C)=O)[C@@H]1C
inactive: dose: 25.0 mg/kg/injection, schedule: Q01DX009 (ip), vehicle: Klucel (hydroxypropylcellulose) (HPC) 96 % of control | dose: 50.0 mg/kg/injection, schedule: Q01DX001 (ip), vehicle: water 97 % of control | dose: 50.0 mg/kg/injection, schedule: Q01DX009 (ip), vehicle: Klucel (hydroxypropylcellulose) (HPC) 94 % of control | [2] 97 % of control | dose: 100.0 mg/kg/injection, schedule: Q01DX001 (ip), vehicle: water 103 % of control | [14] 94 % of control | [5] 100 % of control | dose: 200.0 mg/kg/injection, schedule: Q01DX001 (ip), vehicle: water 100 % of control | [6] 97 % of control | dose: 400.0 mg/kg/injection, schedule: Q01DX001 (ip), vehicle: water 108 % of control | dose: 1200.0 mg/kg/injection, schedule: Q01DX001 (ip), vehicle: acetone 102 % of control
